Laboratory results: article PMC7749613 (Journal of Cachexia, Sarcopenia and Muscle, 2020)
Bridge positions count the residues as written; N and C are the ends. Square brackets hold non-standard residues; d marks the D form. Peptide text beside a SMILES is read from it. d2Nal = N[C@H](Cc1ccc2ccccc2c1)C(=O)O; Nle = CCCC[C@H](N)C(=O)O

Key:
OATP2B1 = biological target: T1, OATP2B1 (Homo sapiens, UniProt O94956); experiment: Inhibition of prototypical substrate (E3S) uptake by TCMCB07 in HEK293/OATP2B1 cells; type: in vitro ADME
T1 construct: host or cells: HEK293
T1 sequence (O94956 1-709): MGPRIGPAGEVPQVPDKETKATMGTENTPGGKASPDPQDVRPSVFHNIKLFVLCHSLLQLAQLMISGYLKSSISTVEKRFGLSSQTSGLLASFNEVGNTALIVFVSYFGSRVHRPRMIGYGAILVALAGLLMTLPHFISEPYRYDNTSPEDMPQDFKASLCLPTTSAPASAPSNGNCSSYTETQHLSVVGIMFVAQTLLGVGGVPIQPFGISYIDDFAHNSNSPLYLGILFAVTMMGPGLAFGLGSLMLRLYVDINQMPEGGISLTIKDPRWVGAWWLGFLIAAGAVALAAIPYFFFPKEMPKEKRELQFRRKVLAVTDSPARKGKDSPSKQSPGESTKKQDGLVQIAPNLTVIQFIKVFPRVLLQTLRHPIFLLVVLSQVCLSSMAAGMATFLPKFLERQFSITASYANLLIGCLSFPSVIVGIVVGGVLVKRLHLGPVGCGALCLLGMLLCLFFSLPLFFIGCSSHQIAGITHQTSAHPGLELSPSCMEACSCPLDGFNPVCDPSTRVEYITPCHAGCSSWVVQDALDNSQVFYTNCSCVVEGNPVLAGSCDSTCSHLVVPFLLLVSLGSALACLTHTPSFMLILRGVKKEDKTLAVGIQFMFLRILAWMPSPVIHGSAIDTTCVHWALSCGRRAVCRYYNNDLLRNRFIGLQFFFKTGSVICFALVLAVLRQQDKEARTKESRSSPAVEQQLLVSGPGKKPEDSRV
Experimental: (§1) Cells were then washed three times × 1.0 mL each with pre‐warmed Hank's Balanced Salt Solution (HBSS) buffer. A 0.5 mL aliquot of uptake buffer [HBSS plus 10 mM 4‐(2‐hydroxyethyl)‐1‐piperazineethanesulfonic acid (HEPES), pH 7.4], containing the radiolabelled prototypical substrate and mannitol, was then incubated for various times up to 60 min to determine the optimal incubation time for subsequent experiments (i.e. time of sampling during linear uptake conditions). At the designated times, 1.0 mL of ice‐cold HBSS buffer was added to stop uptake after which the cells were rinsed three times with 1.0 mL with ice‐cold HBSS. Hyamine hydroxide (0.33 mL) was then added to each well to lyse the cells. The cells were transferred into a scintillation vial and mixed with 6.0 mL of cytosine scintillation cocktail. Radioactivity of the solubilized cells was determined with a dual‐channel liquid scintillation counter (Beckman LS 6000; Beckman Coulter Inc., Fullerton, CA) and the protein quantified by a bicinchoninic acid protein assay kit (Pierce Biotechnology; Rockford, IL).

OATP1A2 = biological target: T2, OATP1A2 (Homo sapiens, UniProt P46721); experiment: Cellular uptake in HEK293/OATP1A2‐transfected versus mock cells
T2 sequence (P46721 1-670): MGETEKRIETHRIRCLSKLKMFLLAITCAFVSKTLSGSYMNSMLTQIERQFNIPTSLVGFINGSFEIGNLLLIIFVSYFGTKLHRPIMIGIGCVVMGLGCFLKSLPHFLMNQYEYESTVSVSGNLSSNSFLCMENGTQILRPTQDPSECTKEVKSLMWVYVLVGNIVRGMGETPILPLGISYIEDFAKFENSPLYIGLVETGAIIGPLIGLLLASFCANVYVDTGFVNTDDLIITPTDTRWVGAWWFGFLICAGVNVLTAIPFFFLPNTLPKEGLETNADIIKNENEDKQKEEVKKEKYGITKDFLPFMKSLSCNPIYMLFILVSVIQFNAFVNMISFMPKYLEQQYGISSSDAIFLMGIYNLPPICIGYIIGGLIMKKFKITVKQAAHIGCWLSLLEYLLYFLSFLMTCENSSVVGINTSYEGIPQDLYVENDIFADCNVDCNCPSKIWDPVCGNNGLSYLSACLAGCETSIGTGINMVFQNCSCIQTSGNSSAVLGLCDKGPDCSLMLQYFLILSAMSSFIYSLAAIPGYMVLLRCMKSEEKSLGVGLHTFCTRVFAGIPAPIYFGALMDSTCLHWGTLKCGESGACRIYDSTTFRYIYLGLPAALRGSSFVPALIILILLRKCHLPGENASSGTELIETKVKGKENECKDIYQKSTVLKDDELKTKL
Experimental: Mock and transfected cells (250 000 cells/well) were seeded onto BioCoat poly‐D‐lysine 24 well plates (Corning Inc.) and cultured for 2 days as described previously for the other OATPs. […] Cells were incubated for various times over 10 min for the uptake studies. Radioactivity and protein measurements were then performed as described previously.
Cellular uptake and transepithelial transport were calculated as described previously by our laboratory. ^16 , ^17 , ^18 , ^19 [^3H]mannitol or [^14C]mannitol was used to correct the uptake of [^14C]substrate or [^3H]substrate, respectively, due to filter binding and extracellular content, as well as the transepithelial transport of substrate due to paracellular flux.
Uptake kinetics in mock cells was evaluated by a linear term: (3) v=Slope·C+Yint, where Slope is the non‐saturable rate constant and Yint is the y‐intercept of the line.

OATP1B1 = biological target: T3, OATP1B1 (Homo sapiens, UniProt Q9Y6L6); experiment: Inhibition of prototypical substrate (E17βG) uptake by TCMCB07 in HEK293/OATP1B1 cells; type: in vitro ADME
T3 construct: host or cells: HEK293
T3 sequence (Q9Y6L6 1-691): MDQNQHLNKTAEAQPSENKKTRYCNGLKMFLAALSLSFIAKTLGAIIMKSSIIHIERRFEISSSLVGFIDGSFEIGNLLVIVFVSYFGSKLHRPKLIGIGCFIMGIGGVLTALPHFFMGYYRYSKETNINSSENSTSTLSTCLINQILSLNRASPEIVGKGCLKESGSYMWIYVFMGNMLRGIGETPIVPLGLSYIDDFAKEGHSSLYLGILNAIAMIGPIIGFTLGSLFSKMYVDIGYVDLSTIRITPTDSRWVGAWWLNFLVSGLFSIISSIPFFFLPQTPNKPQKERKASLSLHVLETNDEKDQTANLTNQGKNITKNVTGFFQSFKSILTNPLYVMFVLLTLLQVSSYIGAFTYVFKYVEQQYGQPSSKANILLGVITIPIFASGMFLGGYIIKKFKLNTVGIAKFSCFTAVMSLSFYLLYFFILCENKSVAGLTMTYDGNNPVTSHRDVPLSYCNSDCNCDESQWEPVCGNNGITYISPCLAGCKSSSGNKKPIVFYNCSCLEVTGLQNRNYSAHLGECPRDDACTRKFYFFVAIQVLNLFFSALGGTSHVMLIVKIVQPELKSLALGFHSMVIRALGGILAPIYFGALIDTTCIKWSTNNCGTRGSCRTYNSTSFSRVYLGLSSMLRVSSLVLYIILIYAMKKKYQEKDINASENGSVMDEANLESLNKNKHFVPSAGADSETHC
Experimental: as §1

human P‐gp (ABCB1, MDR1) = biological target: T4, human P‐gp (ABCB1, MDR1) (Homo sapiens, UniProt P08183); experiment: Transepithelial transport of digoxin (±TCMCB07) in MDCKII/MDR1 cells; type: in vitro ADME
T4 construct: host or cells: MDCKII
T4 sequence (P08183 whole entry): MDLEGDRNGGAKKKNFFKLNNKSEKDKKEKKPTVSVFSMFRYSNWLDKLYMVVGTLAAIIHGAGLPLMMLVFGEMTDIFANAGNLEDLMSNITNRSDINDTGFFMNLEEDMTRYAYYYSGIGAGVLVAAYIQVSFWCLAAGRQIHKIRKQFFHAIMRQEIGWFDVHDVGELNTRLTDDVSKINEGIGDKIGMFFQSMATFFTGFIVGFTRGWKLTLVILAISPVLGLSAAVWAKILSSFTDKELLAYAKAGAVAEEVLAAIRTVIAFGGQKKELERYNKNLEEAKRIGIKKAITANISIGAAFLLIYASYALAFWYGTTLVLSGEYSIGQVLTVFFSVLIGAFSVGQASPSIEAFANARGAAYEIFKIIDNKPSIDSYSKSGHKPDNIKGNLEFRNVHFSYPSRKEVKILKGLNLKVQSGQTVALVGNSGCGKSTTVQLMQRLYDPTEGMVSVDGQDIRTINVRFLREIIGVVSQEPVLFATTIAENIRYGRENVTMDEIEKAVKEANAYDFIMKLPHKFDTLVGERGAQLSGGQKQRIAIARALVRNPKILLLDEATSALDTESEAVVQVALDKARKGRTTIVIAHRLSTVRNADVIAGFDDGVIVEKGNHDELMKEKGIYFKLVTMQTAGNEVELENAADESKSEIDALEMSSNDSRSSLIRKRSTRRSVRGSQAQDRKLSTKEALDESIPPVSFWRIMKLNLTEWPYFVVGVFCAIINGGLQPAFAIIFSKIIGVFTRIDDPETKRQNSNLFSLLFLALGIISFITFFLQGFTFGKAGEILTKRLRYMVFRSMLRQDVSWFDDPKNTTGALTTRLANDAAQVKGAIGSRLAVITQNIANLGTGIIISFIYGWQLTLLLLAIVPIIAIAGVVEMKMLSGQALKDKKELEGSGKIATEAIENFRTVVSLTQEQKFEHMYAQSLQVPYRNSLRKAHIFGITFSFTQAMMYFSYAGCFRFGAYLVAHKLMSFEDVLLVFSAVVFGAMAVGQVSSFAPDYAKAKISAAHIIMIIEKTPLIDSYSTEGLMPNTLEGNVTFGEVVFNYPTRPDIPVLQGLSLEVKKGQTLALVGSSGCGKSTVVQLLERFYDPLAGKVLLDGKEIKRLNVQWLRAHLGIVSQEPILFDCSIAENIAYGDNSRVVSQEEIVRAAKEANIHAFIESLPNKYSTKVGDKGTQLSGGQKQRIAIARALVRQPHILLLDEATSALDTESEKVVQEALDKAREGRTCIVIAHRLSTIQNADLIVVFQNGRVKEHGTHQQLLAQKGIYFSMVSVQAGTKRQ
Experimental: Cells were then washed three times, each with 0.5 mL pre‐warmed HBSS buffer. […] The cells were then incubated for various times up to 60 min. […] At the designated times, 15 μL of apical buffer and 50 μL of basolateral buffer were sampled. Once all the samples were collected, 0.5 mL of ice‐cold HBSS buffer was added to the well to stop transport after which the cells were rinsed three times with 0.5 mL of ice‐cold HBSS. The filters with monolayers were then detached from the chamber and placed in a scintillation vial, and the cells were lysed with 0.33 mL hyamine hydroxide.
The permeability of digoxin and rosuvastatin (prototypical substrates for MDR1 and BCRP, respectively) was determined by the following ^18 : (4) Papp=CR·VR/CD^o·A·∆Δt, where Papp is the apparent permeability, CR is the concentration of substrate in the receiver chamber, CD^o is the concentration of substrate in the donor chamber at time zero, VR is the volume of buffer in the receiver chamber, A is the surface area of the insert filter membrane, and ∆t is the time over which permeability is measured.

- IC50 (OATP2B1): 524 ± 83 µM
- saturable uptake component (V max/K m) as share of total uptake (V max/K m + K d) (OATP1A2; OATP1A2‐transfected cells, at low concentrations (<< K m)): over 90%
- uptake of TCMCB07 in OATP1A2 cells as compared with mock cells (OATP1A2; at 5 min): 3–4 times greater
- IC50 (OATP1B1): 6.8 ± 1 µM
- Slope factor (OATP1B1; slope factor n of Eqn 1, OATP1B1, substrate E17βG): 1.0 ± 0.1
- decrease of MDR1‐mediated permeability of digoxin, A to B direction (human P‐gp (ABCB1, MDR1); in the presence of 500 μM TCMCB07, decreased by): 27%
- increase of MDR1‐mediated permeability of digoxin, B to A direction (human P‐gp (ABCB1, MDR1); in the presence of 500 μM TCMCB07, increased by): 68%
- effect on P‐gp (MDR1)‐mediated permeability of prototypical substrate (human P‐gp (ABCB1, MDR1); transfected cells, 500 μM TCMCB07): did not affect
Structure (SMILES): CCCC[C@H](NC(C)=O)C(=O)N[C@H]1CC(=O)NCCCC[C@@H](C(=O)N[C@@H](C(=O)N2CCC[C@@H]2C(N)=O)C(C)C)NC(=O)[C@H](Cc2c[nH]c3ccccc23)NC(=O)[C@H](CCCN=C(N)N)NC(=O)[C@@H](Cc2ccc3ccccc3c2)NC(=O)[C@@H]2CCCN2C1=O [TCMCB07, Ac‐Nle‐c[Asp‐Pro‐dNal2′‐Arg‐Trp‐Lys]‐dVal‐dPro‐NH2] (Ac-[Nle]DP[d2Nal]RWK[dV][dP]-NH2; lactam 2-7)
